Target: T1, human mineralocorticoid Receptor-α (MRα) (Homo sapiens, UniProt P08235)
T1 construct: made in house; host or cells: Sf21 insect cells (baculovirus), as described for GR
T1 sequence (P08235 1-984): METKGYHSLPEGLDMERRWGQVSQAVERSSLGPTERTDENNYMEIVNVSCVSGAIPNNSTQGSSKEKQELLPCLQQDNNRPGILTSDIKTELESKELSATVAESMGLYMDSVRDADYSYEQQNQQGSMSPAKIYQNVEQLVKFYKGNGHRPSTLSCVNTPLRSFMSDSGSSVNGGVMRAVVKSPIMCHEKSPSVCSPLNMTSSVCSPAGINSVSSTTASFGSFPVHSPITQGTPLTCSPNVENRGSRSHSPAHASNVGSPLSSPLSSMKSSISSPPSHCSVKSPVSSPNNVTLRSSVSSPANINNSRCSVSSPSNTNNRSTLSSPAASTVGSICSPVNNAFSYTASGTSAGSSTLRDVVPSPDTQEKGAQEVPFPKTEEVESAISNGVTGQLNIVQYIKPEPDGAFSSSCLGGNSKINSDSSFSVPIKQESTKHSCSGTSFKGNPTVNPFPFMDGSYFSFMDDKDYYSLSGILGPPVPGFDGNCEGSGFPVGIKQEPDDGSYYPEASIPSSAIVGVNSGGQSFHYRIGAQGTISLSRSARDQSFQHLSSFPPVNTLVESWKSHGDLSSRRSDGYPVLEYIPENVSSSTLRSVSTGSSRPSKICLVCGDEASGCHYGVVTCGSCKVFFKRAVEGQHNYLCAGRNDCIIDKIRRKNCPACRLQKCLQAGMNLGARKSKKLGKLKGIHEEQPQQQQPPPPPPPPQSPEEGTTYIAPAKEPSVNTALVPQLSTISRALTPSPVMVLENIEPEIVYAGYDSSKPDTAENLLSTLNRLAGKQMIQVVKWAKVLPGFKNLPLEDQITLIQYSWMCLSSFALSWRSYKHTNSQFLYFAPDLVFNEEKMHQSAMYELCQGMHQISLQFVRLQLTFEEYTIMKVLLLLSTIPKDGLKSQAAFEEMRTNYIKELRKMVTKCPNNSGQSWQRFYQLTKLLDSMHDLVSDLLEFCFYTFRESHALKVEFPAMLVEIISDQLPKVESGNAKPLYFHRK
Test: Mineralocorticoid binding assay ([3H]aldosterone displacement, MR lysate)
Method: Human mineralocorticoid receptor protein was prepared from a baculovirus expression plasmid comprising cDNA encoding human mineralocorticoid Receptor-α (MRα), as described for GR (Example 158).
Binding assay samples were prepared in separate mini-tubes in a 96-well format at 4° C. Each binding assay sample was prepared in a volume of 250 μl of MR-Assay Buffer (10% glycerol, 10 mM sodium phosphate, 10 mM potassium fluoride, 20 mM sodium molybdate, 0.25 mM CHAPS, 2 mM DTT, (adjusted to pH 7.35)) containing 5-10 μg of MR lysate; 2-4 nM of [^3H]aldosterone; unlabeled aldosterone; and a test compound. Each test compound was assayed at several different concentrations, ranging from 0 to 10^−5 M and each was tested in the presence and in the absence of several different concentrations of unlabeled aldosterone. Each concentration of each test compound was assayed in triplicate. The assay samples were incubated for 16 hours at 4° C.
After incubation, protein was precipitated with hydroxylapatite, collected, and counted as described in Example 158 for GR. Specific binding for a particular sample was calculated using the same equation as was used for GR: (Sample CPM)−(Average Non-specific CPM) Average Non-specific CPM was defined as the amount of radioactivity from samples comprising an excess (i.e. 1000 nM) of unlabeled aldosterone. […] Ki values were determined using the Cheng-Prusoff equation using a previously determined Kd value for aldosterone: Ki=IC50/(1+[L]/Kd) [L]=concentration of labeled aldosterone Kd=dissociation constant of labeled aldosterone

Structure (SMILES) | Ki
CC(=O)Oc1c(-c2cccc(C#N)c2)cc(C)c2c1C(C)CC(C)(C)N2 (racemic) [Compound 245, (±)-5-Acetoxy-6-(3-cyanophenyl)-1,2,3,4-tetrahydro-2,2,4,8-tetramethylquinoline] | 47 nM
Cc1cc(-c2cncnc2)c(Cl)c2c1NC(C)(C)CC2C (racemic) [Compound 256, (±)-5-Chloro-1,2,3,4-tetrahydro-2,2,4,8-tetramethyl-6-(pyrimidin-5-yl)quinoline] | 60 nM
CCC(=O)c1cccc(-c2cc(C)c3c(c2Cl)C(C)=CC(C)(C)N3)c1 [Compound 238, 5-Chloro-1,2-dihydro-2,2,4,8-tetramethyl-6-[3-(propionyl)phenyl]quinoline] | 18 nM
CC1=CC(C)(C)Nc2ccc(-c3cccc(C(N)=O)c3)c(Cl)c21 [Compound 239, 6-(3-Carbamoylphenyl)-5-chloro-1,2-dihydro-2,2,4-trimethylquinoline] | 22 nM

Continued by falling Ki, values first:

Ki | Structure (SMILES)
85 nM | CC1=CC(C)(C)Nc2c(C)cc(-c3cccc(C)c3)c(Cl)c21 [Compound 234, 5-Chloro-1,2-dihydro-2,2,4,8-tetramethyl-6-(3-methylphenyl)quinoline]
12 nM | CC1=CC(C)(C)Nc2ccc(-c3cccc(C(F)(F)F)c3)c(Cl)c21 [Compound 230, 5-Chloro-1,2-dihydro-2,2,4-trimethyl-6-[3-(trifluoromethyl)phenyl]quinoline]
6 nM | Cc1cc(-c2csc(C#N)c2)c(Cl)c2c1NC(C)(C)CC2C (racemic) [Compound 244, (±)-5-Chloro-6-(5-cyanothiophen-3-yl)-1,2,3,4-tetrahydro-2,2,4,8-tetramethylquinoline]

Reference: US20070254917A1, “INTRACELLULAR RECEPTOR MODULATOR COMPOUNDS AND METHODS” (priority 2004, published 2007)
